Several values for one entry are separate records, joined by “and”; a condition that tells them apart may be missing. Equal values may be shown once. Read-outs that look alike come from different tables or passages of the source. Values belong to the molecule of their own block, whether it stands above or below them. *1 amine or outer side, *2 acyl side, *3 side chain or, on linkers, in order; H or OH if unused. Where a SMILES comes first, the peptide text is derived from it. Where no end group is shown, it is not given here. Side-chain parts run from the residue outwards. [ ]: non-standard residue; d: D form. The star is where a group is joined. C20 diacid = O=C(O)CCCCCCCCCCCCCCCCCCC(=O)*; γGlu = O=C(O)[C@H](CCC(=O)[*:2])N[*:1]; εLys = N[C@@H](CCCCN[*:1])C(=O)[*:2]; NMeI = CC[C@H](C)[C@H](NC)C(=O)O; αMeL = CC(C)C[C@](C)(N)C(=O)O; AEEA = NCCOCCOCC(=O)O; Aib = CC(C)(N)C(=O)O
Columns and labels:
[1] = Pharmacokinetics in Sprague Dawley rats, single subcutaneous or intravenous dose (incl. 10, 30, 100 nmol/kg dose response); type: in vivo
human CRHR1 = target: T1, human CRHR1 (Homo sapiens, UniProt P34998); assay: Human CRHR1 cAMP assay (HTRF) in HEK293 cells stably expressing human CRHR1; type: cell-based; settings: HEK293 cells overexpressing human CRHR1; relative EC50, maximum 66 nM human UCN1; mean ± SE; read-out: hCRHR1 cAMP EC50 (pM, ± SE)
T1 construct: expressed in transfected cells
T1 sequence (P34998 24-415): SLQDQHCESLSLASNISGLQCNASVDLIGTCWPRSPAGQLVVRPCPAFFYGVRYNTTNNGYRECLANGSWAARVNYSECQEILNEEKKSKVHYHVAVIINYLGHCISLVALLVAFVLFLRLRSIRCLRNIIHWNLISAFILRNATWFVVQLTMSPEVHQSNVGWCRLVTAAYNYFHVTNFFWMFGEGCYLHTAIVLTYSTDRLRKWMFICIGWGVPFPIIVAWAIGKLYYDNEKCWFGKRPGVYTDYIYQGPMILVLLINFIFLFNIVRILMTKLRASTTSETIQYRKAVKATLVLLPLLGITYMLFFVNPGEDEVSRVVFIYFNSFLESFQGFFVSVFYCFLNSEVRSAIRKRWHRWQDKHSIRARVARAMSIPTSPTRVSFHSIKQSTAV
Summary of the method: (§1)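 Gs-coupled receptor activation was followed as intracellular cAMP in stably transfected HEK293 cells, 25,000 (CRHR1) or 5,000 (CRHR2) per well, with 0.25 mM IBMX present. Stimulation lasted 1 h at 37° C for CRHR1 and 30 min at room temperature for CRHR2.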

human CRHR2 = target: T2, human CRHR2 (Homo sapiens, UniProt Q13324); assay: Human CRHR2 cAMP assay (HTRF) in HEK293 cells stably expressing human CRHR2; type: cell-based; settings: HEK293 cells overexpressing human CRHR2; relative EC50, maximum 10 nM human UCN2; mean ± SE; read-out: hCRHR2 cAMP EC50 (pM, ± SE)
T2 construct: expressed in transfected cells
T2 sequence (Q13324 1-438 isoform Q13324-2): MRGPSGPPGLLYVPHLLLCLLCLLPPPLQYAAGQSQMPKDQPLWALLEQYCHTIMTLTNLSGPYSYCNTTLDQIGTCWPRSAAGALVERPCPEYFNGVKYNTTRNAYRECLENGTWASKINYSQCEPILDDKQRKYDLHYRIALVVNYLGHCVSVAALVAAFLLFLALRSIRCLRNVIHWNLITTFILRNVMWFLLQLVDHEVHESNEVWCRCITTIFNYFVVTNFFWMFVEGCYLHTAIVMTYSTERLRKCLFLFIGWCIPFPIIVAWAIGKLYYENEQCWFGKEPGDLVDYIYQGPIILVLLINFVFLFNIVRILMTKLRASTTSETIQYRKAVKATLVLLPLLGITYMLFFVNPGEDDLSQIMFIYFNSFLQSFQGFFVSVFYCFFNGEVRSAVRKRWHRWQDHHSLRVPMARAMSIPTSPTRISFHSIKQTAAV
Summary of the method: as §1

[2] = system: MHC-II presented peptides on human dendritic cells; assay: MAPPS assay (MHC-Associated Peptide Proteomics); type: cell-based
Protocol: MAPPS profiles the MHC-II presented peptides on human dendritic cells treated with tested molecules. CD14+ cells, isolated from the PBMCs of normal human donors, were cultured and differentiated into immature DCs by incubation with IL-4 and GM-CSF. On day 4, culture media was replaced with fresh media containing tested molecules. On day 5, LPS was added to transform the cells into mature DCs. On day 6, cells were lysed in RIPA buffer with protease inhibitors. Immunoprecipitation of MHC-II complexes were performed using biotinylated anti-MHC-II antibody coupled to streptavidin beads. The bound complex was eluted and filtered. The isolated MHC-II peptides were analyzed by a mass spectrometer. Peptide identifications were generated by an internal proteomics pipeline using search algorithms with no enzyme and a bovine/human database with test sequences appended to the database. A KNIME workflow was used to process the identification files from the samples. Peptides identified from the test articles were aligned against the parent sequence of the test molecule. The output was used to determine the percentage of donors displaying MHC-II peptides from regions of the test molecule. Polypeptides comprising SEQ ID NOs:54, 49, 50, 29, 41, 45, 1, 22, 25 were tested in the MAPPs assay. […] Depending on the donors, up to three major clusters were observed, each slightly shifted from the others, altogether spanning residues 1-33.

[3] = target: T3, human corticotropin-releasing hormone receptor 1 (CRHR1) (human, UniProt P34998 24-415); assay: cell-based or functional assay
T3 sequence (looked up): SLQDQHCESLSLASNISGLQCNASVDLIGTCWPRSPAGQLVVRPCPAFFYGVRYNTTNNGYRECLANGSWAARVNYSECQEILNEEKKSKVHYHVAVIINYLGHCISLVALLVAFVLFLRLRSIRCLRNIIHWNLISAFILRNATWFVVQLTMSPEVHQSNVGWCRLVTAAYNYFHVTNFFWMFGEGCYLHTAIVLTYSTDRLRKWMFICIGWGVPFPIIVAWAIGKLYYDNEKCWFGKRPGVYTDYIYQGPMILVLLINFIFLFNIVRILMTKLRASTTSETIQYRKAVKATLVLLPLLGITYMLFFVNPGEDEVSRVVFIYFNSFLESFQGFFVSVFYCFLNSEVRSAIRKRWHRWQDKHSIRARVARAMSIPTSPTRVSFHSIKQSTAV

[4] = target: rat CRHR2 (endogenous on A7r5 cells) (rat, UniProt P47866 20-411); assay: cell-based or functional assay
[5] = target: T3, human corticotropin-releasing hormone …; assay: cell-based or functional assay; remark: listed apart in the source
[6] = male, Sprague Dawley, rat, plasma, iv, 196 nmol/kg, single intravenous dose 196 nmol/kg, individual animal
[7] = male, Sprague Dawley, rat, plasma, iv, 196 nmol/kg, single intravenous dose 196 nmol/kg, mean
[8] = single intravenous dose 196 nmol/kg, male Sprague Dawley rats, individual animal
[9] = single subcutaneous dose 196 nmol/kg, male Sprague Dawley rats, individual animal

Chain of rat CRHR2 (endogenous on A7r5 cells) (P47866 20-411): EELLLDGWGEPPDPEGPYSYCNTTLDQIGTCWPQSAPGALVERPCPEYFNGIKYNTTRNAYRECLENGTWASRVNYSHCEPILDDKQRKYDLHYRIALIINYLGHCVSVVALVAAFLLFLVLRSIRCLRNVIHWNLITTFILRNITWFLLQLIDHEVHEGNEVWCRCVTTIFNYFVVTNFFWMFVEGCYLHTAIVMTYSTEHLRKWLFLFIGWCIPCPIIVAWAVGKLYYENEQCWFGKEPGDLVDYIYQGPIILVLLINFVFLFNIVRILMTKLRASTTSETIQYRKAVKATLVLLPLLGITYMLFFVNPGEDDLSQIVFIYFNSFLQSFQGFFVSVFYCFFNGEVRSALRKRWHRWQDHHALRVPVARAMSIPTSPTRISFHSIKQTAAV

Molecule: CC[C@H](C)[C@H](NC(C)=O)C(=O)N[C@H](C(=O)N[C@H](C(=O)N[C@@H](CO)C(=O)N[C@@](C)(CC(C)C)C(=O)N[C@@H](CC(=O)O)C(=O)N[C@@H](C(=O)N1CCC[C@H]1C(=O)N[C@H](C(=O)NC(C)(C)C(=O)N[C@@](C)(CC(C)C)C(=O)N[C@@H](CC(C)C)C(=O)N[C@@H](CCC(N)=O)C(=O)N[C@H](C(=O)N[C@@H](CCCCN)C(=O)N[C@@H](CC(C)C)C(=O)N[C@@H](CCC(=O)O)C(=O)N[C@@H](CCC(N)=O)C(=O)N[C@@H](CCC(=O)O)C(=O)N[C@@H](CCCNC(=N)N)C(=O)N[C@@H](C)C(=O)N[C@@H](CCC(=O)O)C(=O)N[C@@H](CCCCN)C(=O)N[C@@H](C)C(=O)N[C@@H](CCCNC(=N)N)C(=O)N[C@@H](CCC(N)=O)C(=O)N[C@@H](CCC(N)=O)C(=O)N[C@@H](C)C(=O)N[C@@H](CCCCNC(=O)COCCOCCNC(=O)COCCOCCNC(=O)CC[C@H](NC(=O)CCCCCCCCCCCCCCCCCCC(=O)O)C(=O)O)C(=O)N[C@@H](CCC(=O)O)C(=O)N[C@@H](CC(N)=O)C(=O)N[C@H](C(=O)N[C@@H](CCC(=O)O)C(=O)N[C@H](C(=O)N[C@@H](CC(C)C)C(=O)N[C@@H](C)C(=O)N[C@@H](CCC(N)=O)C(=O)N[C@H](C(N)=O)C(C)C)[C@@H](C)CC)[C@@H](C)O)[C@@H](C)CC)[C@@H](C)CC)C(C)C)[C@@H](C)O)C(C)C [SEQ ID NO: 42, Ac-IVTS αMeL D (D-Val) PI Aib αMeL LQIKLEQERAEKARQQAK((2-[2-(2-Amino-ethoxy)-ethoxy]-acetyl)2-γE-CO-(CH2)18-CO2H)ENTEILAQV-NH2] (Ac-IVTS[αMeL]D[dV]PI[Aib][αMeL]LQIKLEQERAEKARQQAK([AEEA-AEEA-γGlu-C20 diacid])ENTEILAQV-NH2)
clearance [1, 6]: 2.4 mL/h/kg | half-life [1, 6]: 36.1 h | clearance [1, 7]: 2.43 mL/h/kg | half-life [1, 7]: 39.3 h | half-life ([1]; male, Sprague Dawley, rat, plasma, sc, 196 nmol/kg, single subcutaneous dose 196 nmol/kg, individual animal): 33.2 h | CL/F ([1]; male, Sprague Dawley, rat, plasma, sc, 196 nmol/kg, single subcutaneous dose 196 nmol/kg, individual animal, read-out: CL/F (converted)): 5.41 mL/h/kg | Tmax ([1]; male, Sprague Dawley, rat, plasma, sc, 196 nmol/kg, single subcutaneous dose 196 nmol/kg, individual animal, read-out: Tmax): 48 h | half-life ([1]; male, Sprague Dawley, rat, plasma, sc, 196 nmol/kg, single subcutaneous dose 196 nmol/kg, mean): 42.2 h | CL/F ([1]; male, Sprague Dawley, rat, plasma, sc, 196 nmol/kg, single subcutaneous dose 196 nmol/kg, mean, read-out: CL/F (converted)): 4.85 mL/h/kg | Tmax ([1]; male, Sprague Dawley, rat, plasma, sc, 196 nmol/kg, single subcutaneous dose 196 nmol/kg, mean, read-out: Tmax): 40 h | AUC0-inf ([1]; rat, plasma, sc, single subcutaneous dose 196 nmol/kg, male Sprague Dawley rats, mean, read-out: AUC0-inf): 44.3 µM·h | Cmax ([1]; rat, plasma, sc, single subcutaneous dose 196 nmol/kg, male Sprague Dawley rats, mean, read-out: Cmax): 473 nM | AUC0-inf ([1]; rat, plasma, single intravenous dose 196 nmol/kg, male Sprague Dawley rats, mean, read-out: AUC0-inf): 80.6 µM·h | C0 ([1]; rat, plasma, single intravenous dose 196 nmol/kg, male Sprague Dawley rats, mean, read-out: C0): 2420 nM | AUC0-inf [1, 8]: 81.5 µM·h and 77.9 µM·h and 82.5 µM·h | C0 [1, 8]: 2760 nM and 2250 nM and 2260 nM | CL [1, 8]: 2.51 mL/h/kg and 2.37 mL/h/kg | T1/2 [1, 8]: 35.8 h and 46.0 h | AUC0-inf [1, 9]: 38.1 µM·h and 43.2 µM·h and 51.5 µM·h | CL/F [1, 9]: 4.80 mL/h/kg and 4.35 mL/h/kg | Cmax [1, 9]: 399 nM and 559 nM and 460 nM | T1/2 [1, 9]: 39.1 h and 54.2 h | Tmax [1, 9]: 24 h | EC50 (human CRHR1): 2.3e+06 pM | EC50 (human CRHR2): 6.6 ± 0.8 pM

Molecule: Ac-GSPSIVTS[αMeL]DVPT[Aib][αMeL]LQKLLEQERAEKARQQAK([γGlu-AEEA-εLys-C20 diacid])EAAEILAQV-NH2 [polypeptide comprising SEQ ID NO:2]
hCRHR1 cAMP EC50 [3]: > 10000 nM | A7r5 cAMP EC50 [4]: 0.544 nM | Y79 cAMP EC50 [5]: 2100 nM

More lines, main results first:

EC50 (human CRHR1): 3.7e+06 pM | EC50 (human CRHR2): 9 ± 3.6 pM | MAPPS Assay >10 donors with diverse MHC ([2]; donors displaying MHC-II peptides / donors tested): 0/20 | MAPPS Assay >10 donors with diverse MHC ([2]; percentage of donors displaying MHC-II peptides): 0%
Molecule: γGlu-GPSIVTS[αMeL]D[dV]PI[Aib][αMeL]LQIKLEQERAEKARQQAK([AEEA-AEEA-γGlu-C20 diacid])ENTEILAQV-NH2 [SEQ ID NO: 45, γE-GPSIVTS αMeL D (D-Val) PI Aib αMeL LQIKLEQERAEKARQQAK((2-[2-(2-Amino-ethoxy)-ethoxy]-acetyl)2-γE-CO-(CH2)18-CO2H)ENTEILAQV-NH2]
peptides displayed on MHC-II complexes ([2]; human dendritic cells from normal donors): no peptides displayed on MHC-II complexes | immunogenicity compared with SEQ ID NO:54 ([2]; in the MAPPs assay and/or the T cell proliferation assay): substantial improvements in immunogenicity over a compound comprising SEQ ID NO:54

hCRHR1 cAMP EC50 [3]: > 10000 nM | Y79 cAMP EC50 [5]: > 10000 nM
Molecule: IVLSLDVPIGLLQILLEQARARAAREQATTNARILARV-NH2 (ligand) [Human urocortin-2 (UCN2)]

hCRHR1 cAMP EC50 [3]: > 10000 nM | A7r5 cAMP EC50 [4]: 0.471 nM | Y79 cAMP EC50 [5]: 6000 nM
Molecule: [NMeI]VLSLDVPIGLLQILLEQEKQEKEKQQAKTNAQILAQV-NH2 (not fully specified (residue 29)) [Reference compound SEQ ID NO:54]
